These results are taken from patent publication US20250304551A1 (SHANGHAI APEIRON THERAPEUTICS COMPANY LIMITED, priority 2022, published 2025).

Where only a bound is given, the exact number is not on record here.

The target in assay [1] is T1, Human KIF18A (amino acid sequence 1-417) (Homo sapiens, UniProt Q8NI77).
T1 construct: purchased Viva Biotech (Shanghai) Ltd
The experiment in a line: Enzyme activity detection experiment (ADP-Glo, KIF18A with tubulin and ATP). The assay is classed as biochemical. The following applies: tubulin 60 μg/mL, ATP 25 μM, KIF18A protein 2.5 nM, 120 minutes at ambient temperature, ADP-Glo chemiluminescence. The protocol:
Materials: Human KIF18A (amino acid sequence 1-417) was obtained from Viva Biotech (Shanghai) Ltd., and the ADP-Glo™ protein kinase kit was acquired from Promega, USA. Tubulin was sourced from Cytoskeleton, USA, while a 384-well assay plate and the Envision multifunctional microplate reader were obtained from PerkinElmer, USA.
Enzyme activity detection: The compound powder in DMSO was firstly dissolved to prepare a 10 mM stock solution. Next, gradient dilutions were prepared in the microplate to achieve final concentrations of […]. Sequentially, 2.5 μL of tubulin (60 μg/mL), the compound, ATP (25 μM), and KIF18A protein (2.5 nM) were added to each well, and the reaction was incubated at ambient temperature for 120 minutes. After the reaction, 10 μL of ADP-Glo™ reagent was added to each well and incubated at ambient temperature for 30 minutes. Subsequently, 20 μL of detection reagent was added to each well and incubated for an additional 30 minutes in the dark. Finally, chemiluminescence detection was performed using the PerkinElmer Envision multifunctional microplate reader.
A general note: ADP-Glo turns the ADP formed in a reaction into a luminescent signal.

For a further assay, the system named is OVCAR3 cells. The experiment in a line: Cell proliferation activity test, OVCAR3 (CyQUANT Direct). The assay is classed as cell-based. As to conditions: Homo sapiens, OVCAR-3, 72 h, 3 days incubation, CyQUANT fluorescence detection, read-out: OVCAR-3 Cell Viability_IC50_nM. The protocol: Materials and Cells: OVCAR3 cells were purchased from Nanjing Cobioer Biosciences Co., Ltd. RPMI-1640 medium, fetal bovine serum, and the CyQUANT Direct Cell Proliferation Assay kit were purchased from Thermo Fisher Scientific, USA; 96-well cell culture plates were sourced from Corning, USA.
Cell Culture: Culture OVCAR3 cells with RPMI-1640 medium containing […] and incubate them in a […] incubator at 37° C. Only cells in the logarithmic growth phase can be used for the test.
Inoculate OVCAR3 cells into a 96-well cell culture plate at 90 μL per well and incubate overnight in a […] incubator at 37° C. Dissolve the compound powder in DMSO to prepare a stock solution of 10 mM. Then perform gradient dilution for the compounds in the microplate to achieve a final concentration of 0-10 μM. Add 10 μL of cell culture medium containing compounds to each well to make the final DMSO content 0.20%. Incubate the cell plates in a […] incubator at 37° C. for 3 days. Add 100 μL of CyQUANT detection reagent to each well, react at 37° C. for 60 min, and perform fluorescence detection using the PerkinElmer Envision.

The next assay deals with HT29 cells. The experiment in a line: CyQuant cell proliferation activity test, HT29. The assay is classed as cell-based. The following applies: Homo sapiens, HT-29, 72 h, HT29 2000 cells per well, 3 days incubation, initial concentration 3000 nM, IC50 by XLFIT, read-out: HT-29 Cell Viability_IC50_nM. The protocol: Materials and Cells: HT29 cells were purchased from Nanjing Cobioer Biosciences Co., Ltd.; RPM-1640 medium, fetal bovine serum, Trypsin-EDTA (0.25%), DMSO, 96-well plates, and CyQuant reagents were purchased from ThermoFisher (USA).
Cell Culture: Culture HT29 cells with RPMI-1640 containing 10% fetal bovine serum under the condition of 37° C. and 5% CO2. Only cells in the logarithmic growth phase can be used for the test.
Cell Proliferation Activity Test: Use the CyQuant reagent to detect the proliferation inhibitory activity of compounds on HT29 cells. Adjust the cell density and inoculate 100 μL per well into the 96-well plate (HT29 at 2000 cells per well), then incubate overnight under the condition of 37° C. and […]. Add compounds of various target concentrations (initial concentration of 3000 nM, 3-fold dilution, 9 concentration gradients), and make the DMSO content 0.20%. Incubate the cell plates at 37° C. and 5% CO2 for 3 days. Incubate with CyQuant reagent for 1 h, read the plate by Envision, and calculate IC50 using XLFIT.

T1 sequence (Q8NI77 1-417): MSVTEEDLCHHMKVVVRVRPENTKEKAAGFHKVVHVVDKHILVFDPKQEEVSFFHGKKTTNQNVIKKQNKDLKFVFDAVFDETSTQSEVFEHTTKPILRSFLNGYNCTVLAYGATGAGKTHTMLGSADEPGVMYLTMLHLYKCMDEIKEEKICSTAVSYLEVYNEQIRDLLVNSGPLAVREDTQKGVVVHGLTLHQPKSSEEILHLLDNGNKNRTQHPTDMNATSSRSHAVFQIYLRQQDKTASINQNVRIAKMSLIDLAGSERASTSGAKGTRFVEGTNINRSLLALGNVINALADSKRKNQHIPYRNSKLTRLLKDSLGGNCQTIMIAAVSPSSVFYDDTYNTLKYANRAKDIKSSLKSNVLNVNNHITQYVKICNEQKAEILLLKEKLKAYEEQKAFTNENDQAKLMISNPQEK
T1 sequence (Q2XVP4 whole entry partner): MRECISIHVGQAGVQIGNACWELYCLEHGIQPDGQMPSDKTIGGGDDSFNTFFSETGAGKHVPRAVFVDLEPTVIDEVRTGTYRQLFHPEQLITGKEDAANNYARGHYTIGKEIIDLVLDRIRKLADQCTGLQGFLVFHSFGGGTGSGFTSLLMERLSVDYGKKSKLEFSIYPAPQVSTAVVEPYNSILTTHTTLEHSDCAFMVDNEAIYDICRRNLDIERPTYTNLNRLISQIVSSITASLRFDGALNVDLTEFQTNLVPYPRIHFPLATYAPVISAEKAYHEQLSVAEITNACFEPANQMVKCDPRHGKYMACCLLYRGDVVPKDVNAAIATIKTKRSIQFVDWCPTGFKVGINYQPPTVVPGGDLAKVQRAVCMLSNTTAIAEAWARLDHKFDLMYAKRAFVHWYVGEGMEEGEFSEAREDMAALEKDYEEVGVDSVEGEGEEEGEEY
T1 sequence (P02554 whole entry partner): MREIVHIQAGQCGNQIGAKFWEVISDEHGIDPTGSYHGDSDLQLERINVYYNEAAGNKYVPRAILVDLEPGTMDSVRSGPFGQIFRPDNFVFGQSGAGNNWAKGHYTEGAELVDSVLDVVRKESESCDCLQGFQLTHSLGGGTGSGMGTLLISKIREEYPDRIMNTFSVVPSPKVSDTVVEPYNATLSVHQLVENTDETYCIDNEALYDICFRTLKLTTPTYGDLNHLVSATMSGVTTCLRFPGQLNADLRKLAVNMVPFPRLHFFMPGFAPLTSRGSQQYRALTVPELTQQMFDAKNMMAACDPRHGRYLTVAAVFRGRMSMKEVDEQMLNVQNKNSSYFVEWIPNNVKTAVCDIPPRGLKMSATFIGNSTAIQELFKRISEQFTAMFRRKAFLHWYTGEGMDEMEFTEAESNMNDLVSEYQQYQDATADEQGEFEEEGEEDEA

In the case of `Cc1cc(-c2nnc(-c3ccc(NS(=O)(=O)CCO)cc3N3CCC4(CC3)CC4)o2)nc(N2CCC(C)(O)CC2)n1` [Example 19, 2-hydroxy-N-(4-(5-(2-(4-hydroxy-4-methylpiperidin-1-yl)-6-methylpyrimidin-4-yl)-1,3,4-oxadiazol-2-yl)-3-(6-azaspiro[2.5]octan-6-yl)phenyl)ethane-1-sulfonamide], the figures for the IC50 (in assay [1]; in the assay on OVCAR3 cells; in the assay with HT29 cells) were 630 nM, 1400 nM and above 3000 nM, respectively.
The matching figures for `COc1cc(-c2nnc(-c3ccc(NS(=O)(=O)CCO)cc3N3CCC4(CC3)CC4)o2)nc(N2CCC(F)(F)CC2)n1` [Example 20, N-(4-(5-(2-(4,4-difluoropiperidin-1-yl)-6-methoxypyrimidin-4-yl)-1,3,4-oxadiazol-2-yl)-3-(6-azaspiro[2.5]octan-6-yl)phenyl)-2-hydroxyethane-1-sulfonamide]: 61 nM, 139 nM and 55 nM.
For `O=S(=O)(CCO)Nc1ccc(-c2nnc(-c3cc(O)nc(N4CCC(F)(F)CC4)n3)o2)c(N2CCC3(CC2)CC3)c1` [Example 21, N-(4-(5-(2-(4,4-difluoropiperidin-1-yl)-6-hydroxypyrimidin-4-yl)-1,3,4-oxadiazol-2-yl)-3-(6-azaspiro[2.5]octan-6-yl)phenyl)-2-hydroxyethane-1-sulfonamide], the values for the IC50 (in assay [1]; in the assay with OVCAR3 cells; in the assay with HT29 cells) were 67 nM, 1620 nM and above 3000 nM, respectively.
For the molecule `COc1cc(-c2nnc(-c3ccc(NS(=O)(=O)CCO)cc3N3CCC4(CC3)CC4)o2)cc(N2CCC(F)(F)CC2)n1` [Example 22, N-(4-(5-(2-(4,4-difluoropiperidin-1-yl)-6-methoxypyridin-4-yl)-1,3,4-oxadiazol-2-yl)-3-(6-azaspiro[2.5]octan-6-yl)phenyl)-2-hydroxyethane-1-sulfonamide], the IC50 was 46 nM in assay [1], 34 nM in the assay with OVCAR3 cells and 23 nM in the assay with HT29 cells.
Take `Cc1cc(-c2nnc(-c3ccc(NS(=O)(=O)CCO)cc3N3CCC4(CC3)CC4)o2)c(F)c(N2CCC(F)(F)CC2)n1` [Example 23, N-(4-(5-(2-(4,4-difluoropiperidin-1-yl)-3-fluoro-6-methylpyridin-4-yl)-1,3,4-oxadiazol-2-yl)-3-(6-azaspiro[2.5]octan-6-yl)phenyl)-2-hydroxyethane-1-sulfonamide]: the IC50 in assay [1] turned out to be 153 nM; in the assay on OVCAR3 cells, 115 nM; in the assay with HT29 cells it was 118 nM.
`Cc1cc(-c2nnc(-c3ccc(NS(=O)(=O)CCO)cc3N3CCC4(CC3)CC4)o2)cc(N2CCC(F)(F)CC2)n1` [Example 24, N-(4-(5-(2-(4,4-difluoropiperidin-1-yl)-6-methylpyridin-4-yl)-1,3,4-oxadiazol-2-yl)-3-(6-azaspiro[2.5]octan-6-yl)phenyl)-2-hydroxyethane-1-sulfonamide]: the IC50 came to 51 nM in assay [1], 16 nM in the assay on OVCAR3 cells and 20 nM with HT29 cells.
The like results for `Cc1cc(-c2nnc(-c3ccc(NS(=O)(=O)CCO)cc3N3CCC4(CC3)CC4)o2)nc(N2CCC(F)(F)CC2)c1` [Example 25, N-(4-(5-(6-(4,4-difluoropiperidin-1-yl)-4-methylpyridin-2-yl)-1,3,4-oxadiazol-2-yl)-3-(6-azaspiro[2.5]octan-6-yl)phenyl)-2-hydroxyethane-1-sulfonamide] were, in that order, 46 nM, 91 nM and 122 nM.
Take `Cc1cc(N2CCC(F)(F)CC2)nc(-c2nnc(-c3ccc(NS(=O)(=O)CCO)cc3N3CCC4(CC3)CC4)o2)c1Cl` [Example 26, N-(4-(5-(3-chloro-6-(4,4-difluoropiperidin-1-yl)-4-methylpyridin-2-yl)-1,3,4-oxadiazol-2-yl)-3-(6-azaspiro[2.5]octan-6-yl)phenyl)-2-hydroxyethane-1-sulfonamide]: the IC50 in assay [1] is 287 nM; in the assay on OVCAR3 cells, 767 nM; with HT29 cells, 1270 nM.
The like results for `Cc1cc(N2CCC(F)(F)CC2)nc(-c2nnc(-c3ccc(NS(=O)(=O)CCO)cc3N3CCC4(CC3)CC4)o2)n1` [Example 27, N-(4-(5-(4-(4,4-difluoropiperidin-1-yl)-6-methylpyrimidin-2-yl)-1,3,4-oxadiazol-2-yl)-3-(6-azaspiro[2.5]octan-6-yl)phenyl)-2-hydroxyethanesulfonamide] were, in that order, 124 nM, 875 nM and 24600 nM.
Regarding `Cc1cc(-c2nnc(-c3ccc(N4CCCS4(=O)=O)cc3N3CCC4(CC3)CC4)o2)nc(N2CCC(F)(F)CC2)n1` [Example 28, 2-(4-(5-(2-(4,4-difluoropiperidin-1-yl)-6-methylpyrimidin-4-yl)-1,3,4-oxadiazol-2-yl)-3-(6-azaspiro[2.5]octan-6-yl)phenyl)isothiazolidine 1,1-dioxide], the IC50 in assay [1] worked out at 293 nM; in the assay with OVCAR3 cells, 118 nM; in the assay with HT29 cells it was 192 nM.
The matching figures for `O=S(=O)(CCO)Nc1ccc(-c2nnc(-c3cc4cccnc4c(N4CCC(F)(F)CC4)n3)o2)c(N2CCC3(CC2)CC3)c1` [Example 29, N-(4-(5-(8-(4,4-difluoropiperidin-1-yl)-1,7-naphthyridin-6-yl)-1,3,4-oxadiazol-2-yl)-3-(6-azaspiro[2.5]octan-6-yl)phenyl)-2-hydroxyethanesulfonamide]: 48 nM, 37 nM and 45 nM.
The like results for `O=S(=O)(CCO)Nc1ccc(-c2nnc(-c3cc4cccnc4c(N4CCC(F)(F)CC4)c3F)o2)c(N2CCC3(CC2)CC3)c1` [Example 30, N-(4-(5-(8-(4,4-difluoropiperidin-1-yl)-7-fluoroquinolin-6-yl)-1,3,4-oxadiazol-2-yl)-3-(6-azaspiro[2.5]octan-6-yl)phenyl)-2-hydroxyethane-1-sulfonamide] were, in that order, 255 nM, 55 nM and 61 nM.
Consider `Cn1cc(-c2ccc(-c3nnc(-c4ccc(NS(=O)(=O)CCO)cc4N4CCC5(CC4)CC5)o3)nc2N2CCC(F)(F)CC2)cn1` [Example 31, N-(4-(5-(6-(4,4-difluoropiperidin-1-yl)-5-(1-methyl-1H-pyrazol-4-yl)pyridin-2-yl)-1,3,4-oxadiazol-2-yl)-3-(6-azaspiro[2.5]octan-6-yl)phenyl)-2-hydroxyethane-1-sulfonamide], for which the IC50 in assay [1] is 161 nM; in the assay on OVCAR3 cells, 16 nM; in the assay with HT29 cells, 11 nM.
The matching figures for `O=S(=O)(CCO)Nc1ccc(-c2nnc(-c3cc4cccn4c(N4CCC(F)(F)CC4)n3)o2)c(N2CCC3(CC2)CC3)c1` [Example 32]: 113 nM, 187 nM and 251 nM.
As for `O=S(=O)(CCO)Nc1ccc(-c2nnc(-c3cc4ccoc4c(N4CCC(F)(F)CC4)n3)o2)c(N2CCC3(CC2)CC3)c1` [Example 33], the figures for the IC50 (in assay [1]; in the assay on OVCAR3 cells; in the assay on HT29 cells) were 61 nM, 34 nM and 65 nM, respectively.
The matching figures for `Cc1cc(-c2cn(-c3ccc(NS(=O)(=O)CCO)cc3N3CCC4(CC3)CC4)nn2)nc(N2CCC(F)(F)CC2)n1` [Example 34, N-(4-(4-(2-(4,4-difluoropiperidin-1-yl)-6-methylpyrimidin-4-yl)-1H-1,2,3-triazol-1-yl)-3-(6-azaspiro[2.5]octan-6-yl)phenyl)-2-hydroxyethanesulfonamide]: 56 nM, 12 nM and 15 nM.
